Laboratory results: PubChem BioAssay AID179 (DTP/NCI, 2004)
Calls of active or inactive are those of the source.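 Rule for the calls: active = compounds giving half or more protection of infected cells from virus-caused growth loss, again on retest; inactive = the rest.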

Test system: CEM cells HIV-1 protection, formazan growth assay
Assay: NCI AIDS Antiviral Assay
Details: for IC50: measured here: growth of uninfected CEM cells
In short: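 CEM (human) cells, HIV-1 infected vs uninfected, 5-point dosing, formazan growth read-out. Retest threshold 50% protection.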

| SMILES | EC50 | IC50 | outcome |
| --- | --- | --- | --- |
| CCC(N)Cc1c[nH]c2ccccc12 (stereo not drawn) | > 200 µM | > 200 µM |  |
| COc1ccc2c(c1OC)CN(C)CCc1cc3c(cc1C(=O)C2)OCO3 | > 355 µM | 288 µM |  |
| C=C1C(O)O[C@@H]2O[C@@]3(C)CC[C@H]4[C@H](C)CC[C@@H]1[C@@]24OO3 (stereo partly drawn) | > 200 µM | 8.71 µM |  |
| CN1CCN(C(=S)N2CCN(C)CC2)CC1 | > 2 µM | 1.91 µM |  |
| COc1cc2ccc3c(c2cc1OC)CCc1cnoc1-3 | > 47.9 µM | > 47.9 µM |  |
| CCCCCSSSCCCCC | > 200 µM | 34.7 µM |  |
| CCN(CC)CCC(=O)Nc1ccc2c(c1)C(=O)c1ccc(NC(=O)CCN(CC)CC)cc1C2=O | > 200 µM | 3.39 µM |  |
| O=C1/C(=C/c2ccccc2[N+](=O)[O-])CCCc2ccccc21 | > 200 µM | 34.7 µM |  |
| O=c1[nH]c(=O)n(C2CC(O)C(CO)O2)cc1S (stereo not drawn) |  |  | inactive |
| c1ccc(C2CN3CCSC3=N2)cc1 (stereo not drawn) | > 200 µM | > 200 µM |  |
| CCCCCCCCCCCC(C(=O)O)C(=O)O | > 138 µM | > 138 µM |  |
| O=C1CCCC(=O)N2c3ccc(cc3)CSCCSCc3ccc(cc3)N12 |  |  | inactive |
| COP(C)(=O)C1=CCN(C(=O)OCC[Si](C)(C)C)CC1 (stereo not drawn) | > 200 µM | > 200 µM |  |
| CCOP(=O)(OCC)C(c1ccccc1)N(C(=O)NC(F)(F)F)c1ccc(C)cc1 (stereo not drawn) | > 200 µM | > 200 µM |  |
| Nc1ccc(N)c(N2C(=O)c3ccccc3C2=O)c1 | > 200 µM | > 200 µM |  |
| Cc1cc(NC2=CC(=O)C(=O)c3ccccc32)no1 | > 200 µM | 5.89 µM |  |

| SMILES | EC50 | IC50 | outcome |
| --- | --- | --- | --- |
| CC(=O)CC(=O)CCC(=O)Nc1cccc(C(F)(F)F)c1 |  |  | inactive |
| CCOC(=O)c1c(-c2ccccc2)c(-c2ccccc2)cn1C | > 200 µM | 46.8 µM |  |
| COc1ccc(-c2cc(-c3ccccc3)c(C#N)c(=O)n2C2OC(COC(C)=O)C(OC(C)=O)C(OC(C)=O)C2OC(C)=O)cc1 (stereo not drawn) | > 15.8 µM | > 15.8 µM |  |
| CCOC(=O)/C(=C\c1cccc(OC)c1)[Se]c1ccccc1 | > 14.5 µM | 7.59 µM |  |
| N#CC(C(=O)CCC(=O)Nc1ccc(Cl)c(Cl)c1)c1ccc(Cl)cc1 (stereo not drawn) | > 331 µM | > 331 µM |  |
| CCCc1cc(-c2ccc(N=Nc3cc(S(=O)(=O)O)c4ccccc4c3N)c(CCC)c2)ccc1N=Nc1cc(S(=O)(=O)O)c2ccccc2c1N | 105 µM | 182 µM |  |
| Nc1cc(C(=O)NC2C3CC4CC(C3)CC2C4)[nH]c(=S)n1 (stereo not drawn) | > 813 µM | > 813 µM |  |
| O=C(COC(=O)c1cccc2c(=O)c3ccccc3[nH]c12)Nc1ccc(Cl)cc1 |  |  | inactive |
| CCOC(=O)C(CCCl)C(=O)OCC | > 200 µM | > 200 µM |  |
| NC1=C(Cl)C(=O)c2ccccc2C1=O | > 200 µM |  |  |
| COC(=O)C1=C2Nc3ccccc3[C@@]23CCN(Cc2ccccc2)C3C[C@H]1c1ccoc1 (stereo partly drawn) | > 29.5 µM | > 29.5 µM |  |
| CCOC(=O)c1nnsc1NC(=O)NN | > 200 µM | > 200 µM |  |
| C=C1OC(=O)[C@]2([C@@H](/C=C/C)C=CC(=O)[C@H]2O)[C@@H]1O | > 200 µM | > 200 µM |  |
| N#Cc1cccc(C(Br)S(=O)(=O)c2ccccc2)c1 (stereo not drawn) | > 77.6 µM | 72.4 µM |  |
| O=C(O)[C@H](NS(=O)(=O)c1ccc([N+](=O)[O-])cc1)c1ccccc1 |  |  | inactive |
| N#CC12C3C4C5C3C1C(C42)n1c(=O)n(-c2ccccc2)c(=O)n15 (stereo not drawn) | > 200 µM | > 200 µM |  |
